Test results reported in patent publication US6706289B2, “Methods and compositions for enhanced delivery of bioactive molecules” (priority 2000, dated 2004).
Like-named read-outs stand apart in the source and are kept apart here.

Assays:
[1] = assay type: physicochemical
Experimental: (§1) Core loading measurement of the microspheres was done by dissolving 10 mg of microspheres in 50% acetonitrile followed by centrifugation to pellet the insoluble polymer. Aliquots were analyzed by RP-HPLC and compared to representative standards prepared in 50% acetonitrile. […] The suspensions were vortexed and incubated at 37° C. After 1 hour, aliquots were removed, filtered and analyzed for the amount released by RP-HPLC.

[2] = Mean particle size of microparticles estimated from SEM; assay type: physicochemical
[3] = Initial release at 1 h, in vitro dissolution of microparticles; assay type: physicochemical; details: Monophase microparticles; PBS (50 mM, pH 7.2), 0.02% Tween 20, 25% EtOH, 37° C.
Experimental: as §1

normal rats = test: Hypoglycemic effect: blood glucose levels after subcutaneous administration; assay type: in vivo
Experimental: PEG-Insulin PLGA microspheres and an equivalent dose of free insulin were administered subcutaneously to normal rats. Blood was drawn periodically and anticoagulated. Blood glucose levels were measured by standard tests.

[4] = Double-emulsion (w1/o/w2) PLGA microparticles

| Compound | CL—Coreload (wt % of active in microparticle as isolated) [1, 4] | EE—Encapsulation Efficiency (% of active encapsulated in process) [1, 4] | CL—Coreload (wt % of active in microparticle as isolated) ([1]; Monophase PLGA microparticles) | EE—Encapsulation Efficiency (% of active encapsulated in process) ([1]; Monophase PLGA microparticles) | PS—Mean Particle Size (estimated from SEM) [2, 4] | PS—Mean Particle Size (estimated from SEM) ([2]; Monophase PLGA microparticles) | IR—Initial Release at 1 h from in vitro dissolution [3] | % BGL (glucose normalized to a percentage of basal levels) (normal rats; Time 0 hr) | % BGL (glucose normalized to a percentage of basal levels) (normal rats; Time 1 hr) | % BGL (glucose normalized to a percentage of basal levels) (normal rats; Time 2 hr) | % BGL (glucose normalized to a percentage of basal levels) (normal rats; Time 4 hr) | % BGL (glucose normalized to a percentage of basal levels) (normal rats; Time 6 hr) | % BGL (glucose normalized to a percentage of basal levels) (normal rats; Time 8 hr) | % BGL (glucose normalized to a percentage of basal levels) (normal rats; Time 12 hr) | size range of resulting microspheres ([2]; PLGA microspheres (w/o/w), collected on 25 micron sieve) |
| --- | --- | --- | --- | --- | --- | --- | --- | --- | --- | --- | --- | --- | --- | --- | --- |
| C[C@@H](NC(=O)[C@@H](N)Cc1ccc(O)cc1)C(=O)NCC(=O)N[C@@H](Cc1ccccc1)C(=O)NNC(=O)[C@H](Cc1ccccc1)NC(=O)CNC(=O)[C@@H](C)NC(=O)[C@@H](N)Cc1ccc(O)cc1 [Biphalin] | 0.24% | 14.28% | 0.36% | 3.64% | 50-250 μm | 20-100 μm | 49.4% |  |  |  |  |  |  |  |  |
| Insulin: recombinant human insulin; PLGA microparticles of Examples 14 and 16 | 0.23% |  | 0.6% |  | 100-350 μm | 30-100 μm |  |  |  |  |  |  |  |  |  |
| PEG-Insulin: Human insulin covalently modified with polyethylene glycol, mPEG(5000)-SPA; PLGA microparticles of Examples 15 and 17 |  |  |  |  | 50-250 μm | 50-100 μm |  | 100% | 111.1% | 86.5% | 97% | 98.5% | 82% | 88.8% |  |
| pegylated GM-CSF: GM-CSF conjugated to tresyl-monomethoxy-polyethylene glycol (MW=5000 daltons); paper example |  |  |  |  |  |  |  |  |  |  |  |  |  |  | 25-200 μm |
